These results are taken from BindingDB's records for doi:10.7270/Q2M32T6M (Vanderbilt Screening Center for GPCRs, Ion Channels and …, 2009).

Molecules are shown by their SMILES.

One test has as its target T1, Solute carrier family 12 member 5 (Homo sapiens, UniProt Q9H2X9).
T1 sequence (Q9H2X9 whole entry): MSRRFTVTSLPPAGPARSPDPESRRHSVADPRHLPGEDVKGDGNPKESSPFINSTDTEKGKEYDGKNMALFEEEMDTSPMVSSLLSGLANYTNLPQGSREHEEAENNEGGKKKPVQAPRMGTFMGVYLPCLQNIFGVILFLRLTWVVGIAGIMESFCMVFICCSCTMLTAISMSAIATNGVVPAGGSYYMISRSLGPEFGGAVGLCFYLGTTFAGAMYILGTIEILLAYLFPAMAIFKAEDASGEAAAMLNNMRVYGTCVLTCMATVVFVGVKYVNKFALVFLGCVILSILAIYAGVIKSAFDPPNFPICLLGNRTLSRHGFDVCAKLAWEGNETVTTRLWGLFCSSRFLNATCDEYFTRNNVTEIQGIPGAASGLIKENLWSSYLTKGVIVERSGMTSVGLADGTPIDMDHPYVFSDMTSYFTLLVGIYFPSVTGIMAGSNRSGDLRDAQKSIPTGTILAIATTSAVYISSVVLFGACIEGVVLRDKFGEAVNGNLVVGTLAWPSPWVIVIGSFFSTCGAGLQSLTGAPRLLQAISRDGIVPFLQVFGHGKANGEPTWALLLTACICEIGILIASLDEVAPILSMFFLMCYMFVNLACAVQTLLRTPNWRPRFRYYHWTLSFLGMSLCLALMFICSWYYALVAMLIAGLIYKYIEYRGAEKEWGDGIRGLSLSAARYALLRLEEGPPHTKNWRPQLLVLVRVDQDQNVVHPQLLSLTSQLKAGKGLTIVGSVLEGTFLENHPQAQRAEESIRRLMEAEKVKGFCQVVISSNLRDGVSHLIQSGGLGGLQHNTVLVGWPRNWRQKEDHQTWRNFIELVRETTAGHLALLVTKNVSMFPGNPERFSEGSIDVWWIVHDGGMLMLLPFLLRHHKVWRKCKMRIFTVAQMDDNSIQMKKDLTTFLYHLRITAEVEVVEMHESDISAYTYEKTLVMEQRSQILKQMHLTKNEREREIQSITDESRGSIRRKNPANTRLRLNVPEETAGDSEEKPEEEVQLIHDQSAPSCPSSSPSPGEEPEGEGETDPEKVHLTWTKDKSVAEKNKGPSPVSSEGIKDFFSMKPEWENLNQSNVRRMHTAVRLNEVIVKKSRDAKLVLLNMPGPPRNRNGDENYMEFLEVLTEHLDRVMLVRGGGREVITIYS
Nature of the test: KCC2 modulator potency by thallium flux, dose response, cell-based, HEK293 KCC2, FluoZin-2 fluorescence (AID 1736).
Details: not given
`Cc1cccc(NC(=S)NN=C2C(=O)N(CN3CCOCC3)c3ccccc32)c1C` [(3Z)-1-(morpholin-4-ylmethyl)-1H-indole-2,3-dione 3-[N-(2,3-dimethylphenyl)thiosemicarbazone]] had a 50% effective concentration (EC50) of 6.09 µM.

In the case of `Cc1nc2cc(C(F)(F)F)ccc2n1C1CCN(Cc2nnnn2Cc2ccc3c(c2)OCO3)CC1` [1-[1-(1-Benzo[1,3]dioxol-5-ylmethyl-1H-tetrazol-5-ylmethyl)-piperidin-4-yl]-2-methyl-5-trifluoromethyl-1H-benzoimidazole], the half-maximal effective concentration (EC50) is 3.28 µM.

For the compound `CCN(CC)c1ccc2c(C)c(-c3ccc(N)cc3)c(=O)oc2c1` [3-(4-aminophenyl)-7-(diethylamino)-4-methyl-1-benzopyran-2-one], the concentration for a half-maximal effect (EC50) is 1.15 µM.

With `COc1ccccc1C(=O)NC1CCN(C(=S)NCCc2ccccc2)CC1` [2-methoxy-N-[1-(2-phenylethylcarbamothioyl)piperidin-4-yl]benzamide], the EC50 is 4.22 µM.

In turn, `COc1cc(OC)c(C2=NOC(C(=O)N3CCc4ccccc4C3)C2)cc1Cl` (stereo not drawn) [2-{[3-(5-chloro-2,4-dimethoxyphenyl)-4,5-dihydro-5-isoxazolyl]carbonyl}-1,2,3,4-tetrahydroisoquinoline] returned a concentration for a half-maximal effect (EC50) of 5.55 µM.

The compound `O=C(NC(=S)NNC(=O)c1cnccn1)c1ccc(Cl)cc1` [4-Chloro-N-[N'-(pyrazine-2-carbonyl)-hydrazinocarbothioyl]-benzamide] had an EC50 of 9.74 µM.

The compound `CC(C)(C)NC(=O)C(c1ccncc1)N(Cc1ccco1)C(=O)c1ccc(-c2ccccc2)[nH]1` (stereo not drawn) [N-[2-(tert-butylamino)-2-oxo-1-pyridin-4-ylethyl]-N-(furan-2-ylmethyl)-5-phenyl-1H-pyrrole-2-carboxamide] showed an EC50 of 19.1 µM.

The compound `O=C1OC(c2ccc(O)cc2)(c2ccc(O)cc2)c2ccccc21` displayed an EC50 of 1.8 µM. This EC50 lies about 11-fold lower than the previous one.

As for `Cc1ccc2[nH]c3c(N4CCN(Cc5ccccc5)CC4)ncnc3c2c1` [8-methyl-4-[4-(phenylmethyl)-1-piperazinyl]-5H-pyrimido[5,4-b]indole], a half-maximal effect (EC50) was put at 3.25 µM.

Consider `S=C(NCc1ccccc1Cl)Nc1ccccc1Cl` [1-(2-chlorobenzyl)-3-(2-chlorophenyl)thiourea], for which the EC50 turned out to be 5.74 µM.

The compound `Cc1ccc(C(=O)Nc2nc(=O)n(C(=O)c3ccccc3Cl)s2)cc1` [MLS000540480] displayed a concentration for a half-maximal effect (EC50) of 3 µM.

In turn, `Sc1nnc(Nc2ccccc2)s1` [5-anilino-3H-1,3,4-thiadiazole-2-thione] gave an EC50 of 633 µM. Compared with the last compound, the EC50 is about 210-fold higher.

On to `c1ccc(-c2nnc(Sc3ncnc4c3cnn4-c3ccccc3)[nH]2)cc1` [SMR000019566], for which the concentration for a half-maximal effect (EC50) came out at 6.74 µM.

Consider `Cc1ccc(/C=C2/Sc3ccccc3N(CC(=O)NCCCOC(C)C)C2=O)cc1` [2-[(2E)-2-[(4-methylphenyl)methylidene]-3-oxidanylidene-1,4-benzothiazin-4-yl]-N-(3-propan-2-yloxypropyl)ethanamide], for which it took 21.1 µM to reach a half-maximal effect (EC50).

In the case of `O=C(NC(=S)Nc1cccc2cccnc12)c1cccs1` [MLS000688132], a half-maximal effect (EC50) was put at 0.156 µM.

`CCc1cc(C(=O)N2CCCC(CNC(=O)c3ccc(-c4ccccc4)cc3)C2)no1` (stereo not drawn) [MLS000731765]: the midpoint of the response, the EC50, lay at 3 µM.

For the compound `O=C(O)CCc1cc(I)c(Oc2ccc(O)c(I)c2)c(I)c1` [3-[4-(4-hydroxy-3-iodophenoxy)-3,5-diiodophenyl]propanoic acid], a half-maximal response (EC50) required 4.25 µM.

As to `O=C(NC1CCCC1)C(c1ccncc1)N(Cc1ccco1)C(=O)c1ccc(-c2ccccc2)[nH]1` (stereo not drawn) [MLS000718066], the 50% effective concentration (EC50) was found to be 8.13 µM.

With `COc1cc(C(=S)N2CCOCC2)ccc1OC(=O)Cc1ccc(F)cc1` [(2-methoxy-4-morpholin-4-ylcarbothioyl-phenyl) 2-(4-fluorophenyl)ethanoate], the EC50 worked out at 8.68 µM.

In turn, `O=C(CC(C(=O)N1CCc2ccccc21)n1ccnc1)N1CCc2ccccc2C1` (stereo not drawn) [1-(2,3-dihydroindol-1-yl)-4-(3,4-dihydro-1H-isoquinolin-2-yl)-2-(1-imidazolyl)butane-1,4-dione] registered an EC50 of 113 µM.

Consider `CS/C(=N\Cc1ccc(F)cc1)NS(=O)(=O)c1cccs1` [3-(4-fluorobenzyl)-2-methyl-1-(2-thienylsulfonyl)isothiourea], for which the half-maximal effective concentration (EC50) amounted to 0.498 µM.

With `COc1ccc(NC(=S)NC(N)=Nc2nc(C)c3ccccc3n2)cc1` [(1E)-1-[amino-[(4-methyl-2-quinazolinyl)amino]methylidene]-3-(4-methoxyphenyl)thiourea], it took 2.8 µM to reach a half-maximal effect (EC50).

`CC1(CCc2ccccc2)NC(=O)N(Cc2nnc(-c3ccccc3Br)o2)C1=O` (stereo not drawn) [3-[[5-(2-bromophenyl)-1,3,4-oxadiazol-2-yl]methyl]-5-methyl-5-(2-phenylethyl)imidazolidine-2,4-dione] showed a concentration giving a half-maximal response (EC50) of 6.01 µM.

Turning to `CC(C)c1onc(C(=O)N2CCN(Cc3ccccc3)CC2)c1[N+](=O)[O-]` [(4-benzylpiperazin-1-yl)-(4-nitro-5-propan-2-yl-1,2-oxazol-3-yl)methanone], the EC50 is 0.392 µM.

For the compound `O=C(NNc1nc(-c2ccccc2)cs1)c1ccccc1` [MLS000547345], the midpoint of the response, the EC50, lay at 0.0106 µM. This EC50 is about 37-fold lower than that of the compound before.

`O=C1Nc2ccc([N+](=O)[O-])cc2OC1CCN1CCN(Cc2ccccc2)CC1` (stereo not drawn) [2-[2-(4-benzylpiperazin-1-yl)ethyl]-7-nitro-4H-1,4-benzoxazin-3-one] registered a concentration for a half-maximal effect (EC50) of 4.2 µM.

The compound `CCOC(=O)c1c(C)[nH]c(N=Nc2ccccc2)c1C` [(5Z)-2,4-dimethyl-5-(phenylhydrazinylidene)-3-pyrrolecarboxylic acid ethyl ester] showed an EC50 of 5.25 µM. The EC50 values of the last two compounds are within 1.5-fold of each other.

Regarding `Cc1nn2c(nc(O)c3ccccc32)c1C=O` [MLS000565386], a half-maximal effect (EC50) was put at 20.6 µM. This EC50 is about 3.9-fold higher than that of the compound before.

For `O=C(Nc1cccnc1)c1ccc(COc2cc(Cl)ccc2Cl)o1` [5-[(2,5-dichlorophenoxy)methyl]-N-(3-pyridinyl)-2-furancarboxamide], the 50% effective concentration (EC50) came to 3.88 µM.

As for `COc1ccc(-c2cc(CCCC(=O)NCCc3ccccc3)no2)cc1` [4-[5-(4-methoxyphenyl)-1,2-oxazol-3-yl]-N-(2-phenylethyl)butanamide], the EC50 was 0.642 µM.

`O=C(OCn1ncc(Cl)c(Cl)c1=O)c1ccc(F)cc1` [(4,5-dichloro-6-oxopyridazin-1-yl)methyl 4-fluorobenzoate] yielded a concentration for a half-maximal effect (EC50) of 3.32 µM.

In the case of `Cc1ccc(-c2csc(NC(=O)CCNC(=O)c3ccccc3Cl)n2)cc1` [2-chloranyl-N-[3-[[4-(4-methylphenyl)-1,3-thiazol-2-yl]amino]-3-oxidanylidene-propyl]benzamide], the response was half-maximal at 2.03 µM (EC50). Compared with the last compound, the EC50 is about 1.6-fold lower.

`CN1C(=O)/C(=C/c2ccccc2OCc2ccccc2)NC1=S` [(5Z)-3-methyl-5-[(2-phenylmethoxyphenyl)methylidene]-2-sulfanylidene-4-imidazolidinone] gave an EC50 of 1640 µM. Compared with the last compound, the EC50 is about 810-fold higher.

The compound `Cc1ccccc1OCC(=O)NNC(=O)CCN1C(=O)c2ccccc2C1=O` [3-(1,3-dioxo-2-isoindolyl)-N'-[2-(2-methylphenoxy)-1-oxoethyl]propanehydrazide] showed a half-maximal effective concentration (EC50) of 432 µM.

In turn, `CC1CCCCN1C(=O)CSc1nnc(-c2c[nH]c3ccccc23)o1` (stereo not drawn) returned an EC50 of 15.2 µM.

For the compound `COc1ccc(N(CC(=O)Nc2cccc(C)c2C)S(=O)(=O)c2c(C)n[nH]c2C)cc1` [N-(2,3-dimethylphenyl)-2-[(3,5-dimethyl-1H-pyrazol-4-yl)sulfonyl-(4-methoxyphenyl)amino]ethanamide], the 50% effective concentration (EC50) is 38.6 µM.

`CCOc1cc(S(=O)(=O)NCc2ccccc2)ccc1F` [3-ethoxy-4-fluoranyl-N-(phenylmethyl)benzenesulfonamide] showed a concentration giving a half-maximal response (EC50) of 5.41 µM.

Consider `Cc1cccc(OCc2nnc(SCC(=O)c3cccs3)n2C)c1C` [2-[5-(2,3-Dimethyl-phenoxymethyl)-4-methyl-4H-[1,2,4]triazol-3-ylsulfanyl]-1-thiophen-2-yl-ethanone], for which the EC50 worked out at 9.24 µM. This EC50 is about 1.7-fold higher than that of the compound before.

On to `CN(Cc1ccccc1)S(=O)(=O)c1ccc(Cl)c(C(=O)NCCc2ccccn2)c1` [2-chloranyl-5-[methyl-(phenylmethyl)sulfamoyl]-N-(2-pyridin-2-ylethyl)benzamide], for which the EC50 came out at 0.384 µM.

Still in this test, the particulars now being: inactive by the depositor's call.
On to `O=C(/C=C/c1cccs1)Nc1scc(-c2ccccc2)c1C(=O)O` [SMR000364116], for which the EC50 was found to be 29 µM. In other words, the double-digit micromolar range.

`COc1cccc(C2c3c(oc4ccc(F)cc4c3=O)C(=O)N2CCCN2CCOCC2)c1` (stereo not drawn) [7-fluoranyl-1-(3-methoxyphenyl)-2-(3-morpholin-4-ylpropyl)-1H-chromeno[2,3-c]pyrrole-3,9-dione] came in with an EC50 of 69.9 µM.

The compound `S=C(Nc1ccccn1)Nc1ccccc1Cl` [1-(2-chlorophenyl)-3-(2-pyridinyl)thiourea] registered an EC50 of 1.97 µM. Against the preceding compound, the EC50 is about 35-fold lower.

The compound `O=C(Nc1ccn(Cc2ccccc2)n1)c1cccc(F)c1` [3-fluoranyl-N-[1-(phenylmethyl)pyrazol-3-yl]benzamide] came in with an EC50 of 4.51 µM.

The term EC50 denotes the concentration giving half of the maximal effect. Lower therefore signals a more potent agent.
